63 compounds from PubChem BioAssay AID2305 (GlaxoSmithKline (GSK), 2010) can be followed below.

The subject of the test is P. falciparum 3D7 growth, pLDH absorbance. The experiment in a line: P. falciparum 3D7 growth inhibition, dose response, strain 3D7 (AID 2305).

A word on the IC50: it is the concentration at which inhibition is half-maximal. A high value points to weaker potency in that assay. `CCCC(C)NC(=O)[C@H](CC1CCCCC1)NC(=O)c1ccc(O)c(-c2ccc(OC)cc2)c1` (stereo partly drawn) showed an IC50 of 1130 nM. The same measure for `O=C(/C=C/c1ccc(-c2ccccc2)cc1)NCCCCCN1CCC(c2c[nH]c3ccccc23)CC1`: 850 nM; for `CCNc1cc(C(=O)N[C@@H](Cc2ccc(Cl)cc2)[C@H](O)CNC2CCCCC2)cc(N2CCCCS2(=O)=O)c1`: 150 nM.

Compound `Cc1cc(N[C@@H](CC(C)C)C(=O)NCCOc2ccccc2)nc(Nc2ccccc2)n1` yielded an IC50 of 1110 nM. Compared with the last compound, the IC50 is about 7.4-fold higher. The same measure for `Cc1ccc(-c2ccc3c(c2)C=C(C(=O)NC2CCN(CCNC(=O)c4cccs4)CC2)CCC3)cc1`: 230 nM. Under `CCOc1ccc(C(=O)Nc2cc(Br)c3c(c2)CNCC3)cc1Br` stands 990 nM. Compound `COc1cc(Cc2cnc(N)nc2N)cc(OCCCCCCC(=O)O)c1OC` had an IC50 of 940 nM. The IC50 values of the last two compounds are within 1.5-fold of each other. In the case of `CCOC(=O)C1CCN(CCCNC(=O)/C(=C/C=C/c2cc3cc(Cl)c(Cl)cc3[nH]2)OC)CC1`, the IC50 worked out at 1040 nM. Under `Cc1cc(OCCCN2CCCCC2)ccc1NC(=O)COc1ccc(Cl)cc1C(=O)c1cc(Cl)cc(C#N)c1` stands 890 nM; under `CCOc1ccccc1C(=O)N1CCc2cc3nccc(N4CCN5CCC[C@H]5C4)c3cc21`, 750 nM. The same measure for `O=C(NCc1ccc(Cl)c(Cl)c1)c1ccc(-c2nc3ccc(Cl)cc3[nH]2)cc1`: 900 nM; for `Cc1cccc2[nH]c(-c3ccc(-c4ccc(CN5CCC(C(N)=O)CC5)cc4)cc3)nc12`: 930 nM. Under `CC(C)[C@H](NC(=O)c1c(F)cccc1F)C(=O)Nc1ccc(Cc2nc3ccccc3s2)cc1` stands 500 nM; under `COc1ccc(S(=O)(=O)NC2CCN(c3ccnc4cc(Cl)ccc34)C2)cc1` (stereo not drawn), 490 nM; under `COc1ccc(C2CC(=O)C3=C(C2)NC(C)=C(C(=O)OC(C)C)C3c2c(F)cccc2Cl)cc1OC` (stereo not drawn), 820 nM.

Regarding `Cc1cc(N2CCC(NS(=O)(=O)c3ccccc3)CC2)nc(Nc2cccc(C#N)c2)n1`, the concentration for half-maximal inhibition (IC50) was 1350 nM. Compound `CCN(CC)CCCN(CCCN(CC)CC)c1cc(C)nc(Nc2ccc(Br)cc2)n1` came in with an IC50 of 200 nM. This IC50 is about 6.8-fold lower than that of the compound before. The same measure for `Cc1cccc(C)c1C1CCN(C2CCC(NC(=O)/C=C/c3ccccc3)CC2)CC1` (stereo not drawn): 580 nM. Under `COc1cc(OC)c(OC)cc1CN1CCC2(CC1)CN(Cc1ccc(Cl)c(Cl)c1)C(=O)O2` stands 810 nM.

As to `CN1CCN(c2ccnc3ccc(NC(=O)Nc4ccc(-c5ccncc5)c(C(F)(F)F)c4)cc23)CC1`, the IC50 came out at 820 nM. Under `Cc1cc(Nc2ccc(Cl)c(Cl)c2)n2nc(C)nc2n1` stands 260 nM; under `O=C(NC12CC3CC(CC(C3)C1)C2)C(=O)c1c[nH]c2ccccc12`, 230 nM. The compound `Cc1cc(NN=Cc2ccc([N+](=O)[O-])cc2)c2ccc(F)cc2n1` registered an IC50 of 890 nM. Against the preceding compound, the IC50 is about 3.9-fold higher. Under `O=C(Nc1ccc2oc(-c3ccc(Cl)cc3Cl)nc2c1)c1ccc([N+](=O)[O-])o1` stands 1100 nM; under `O=C(/C=C/c1ccc(Cl)cc1)NCCCCCN1CCCN(C(=O)Nc2cccc(Cl)c2)CC1`, 1000 nM; under `CN(Cc1cccc(F)c1)C1CCN(c2cc(NC(=O)c3ccc(F)cc3)ccn2)CC1`, 1160 nM. As to `COc1cc(Cc2cnc(N)nc2N)c2ccsc2c1OC`, the half-maximal inhibitory concentration (IC50) was determined as 1070 nM. The compound `CN(C)c1nc(NN=Cc2cc(Cl)ccc2O)nc(Nc2ccc(F)cc2)n1` returned an IC50 of 840 nM. The same measure for `Cc1cc(Cl)c(S(=O)(=O)NC2CCCC2)cc1OCC(=O)NC1CCCCC1`: 380 nM; for `CC(O)C1CCCCN1C(=O)c1cccc(-c2cccc(-c3nc4ccc(F)cc4[nH]3)c2)c1` (stereo not drawn): 540 nM.

As for `c1cncc(CCNCc2cccc(-c3ccc(-c4nc5ccccc5[nH]4)s3)c2)c1`, the IC50 turned out to be 200 nM. The same measure for `CCC(CC)NCc1c(O)ccc2c(CNC(CC)CC)c(O)ccc12`: 390 nM. Under `O=C(NCc1ccc(C(=O)N2CCC(N3CCCCC3)CC2)cc1)c1cc(-c2cccc(C(F)(F)F)c2)ccc1O` stands 820 nM; under `CCNC(C)(C)CN(Cc1ccc(-c2ccc(C(F)(F)F)cc2)cc1)C(=O)Cn1c(SCc2ccc(F)cc2)nc(=O)c2c1CCC2`, 990 nM. Under `COc1ccc2c(c1)ncn2-c1cc(OCc2ccncc2Br)c(C(N)=O)s1` stands 610 nM; under `CCc1c(CCNCCCCCCNCCc2ccc(Br)cc2)ccc(OC)c1OC`, 230 nM. For `Nc1ccc2c(N)c3ccccc3nc2c1`, the IC50 is 810 nM. Consider `COc1ccc(C=NNc2c3ccccc3nc3ccccc23)c2ccccc12`, for which the IC50 was 1130 nM.

On to `COc1cc(F)c2ncc(C#N)c(CCN3CCC(NCc4ccc5c(c4)OCCO5)CC3)c2c1`, for which the IC50 came out at 430 nM. Compared with the last compound, the IC50 is about 2.6-fold lower. Under `O=C(C=CC(=O)N1CCCCC1)NCc1ccccc1` stands 730 nM; under `Oc1ccc(-c2cc(-c3ccc(O)cc3)nc(-c3ccccc3)n2)cc1`, 780 nM. In turn, `Cc1ccc(OCC2CCN(c3ncc(C(=O)NC4CC4)cc3Cl)CC2)cc1` came in with an IC50 of 1090 nM. In turn, `COc1ccc2nc3cc(Cl)ccc3c(NCCCCNc3c4ccc(Cl)cc4nc4ccc(OC)cc34)c2c1` had an IC50 of 160 nM. The same measure for `Cc1cccc(Nc2nccc(Nc3cccc(C(=O)NCCN4CCOCC4)c3)n2)c1`: 1420 nM; for `COc1ccc(CN2CCN(Cc3cc(Cl)ccc3O)CC2CCO)c(C)c1C` (stereo not drawn): 1490 nM. For `COc1cc(Nc2nccc(N3CCC(NC(=O)Nc4cccc(C(C)=O)c4)C3)n2)cc(OC)c1OC` (stereo not drawn), the IC50 amounted to 970 nM. Under `O=C(Nc1ccc(-c2cccc(-c3nc4ccc(C(F)(F)F)cc4[nH]3)c2)cc1)c1csnn1` stands 800 nM. Under `NC(N)=Nc1nc(-c2ccc(NC(=O)Nc3cccc(-c4csc(N=C(N)N)n4)c3)cc2)cs1` stands 1010 nM. The same measure for `CCN1CCN(c2ccc(Nc3c4ccccc4nc4ccccc34)cc2)CC1`: 720 nM.

On to `COc1cccc(C(=O)NC(c2ccc(Cl)cc2Cl)c2cc(Cl)c3cccnc3c2O)c1` (stereo not drawn), for which the IC50 amounted to 450 nM. Under `COc1ccc(CCNCCCCNCCc2ccc(OC)c3ccccc23)c2ccccc12` stands 450 nM; under `COc1ccc(CNCc2cccc(-c3cccc(-c4nc5ccc(F)cc5[nH]4)c3)c2)cc1`, 300 nM; under `CN(C)c1c(CNCCCCCCNCc2ccc3ccccc3c2N(C)C)ccc2ccccc12`, 460 nM. The same measure for `COc1ccc2nccc(N3CCC(SCCNS(=O)(=O)c4ccc5c(c4)NC(=O)CS5)C3)c2n1` (stereo not drawn): 1580 nM; for `Cn1nc(-c2ccc(NC(=O)Nc3ccc4ccccc4c3)c(F)c2)c2cnc(NCCN3CCOCC3)nc21`: 1020 nM. The same measure for `Nc1c(Cl)cc(C(O)CNCCCCCOCCCc2ccc3ncccc3c2)cc1Cl` (stereo not drawn): 980 nM; for `COc1ccc2c(c1CNCCCCCCNCc1c(OC)ccc3c1CCCC3)CCCC2`: 910 nM. Consider `COc1ccccc1CN1CCC(NC(=O)c2ccc(-c3cccc(C(F)(F)F)c3)s2)CC1`, for which the IC50 was 1310 nM. This IC50 and that of the compound before are within 1.5-fold of each other. Compound `COc1cccc(CN2CCC3(CC2)CN(C(=O)Nc2ccc(Cl)c(Cl)c2)C3)c1` showed an IC50 of 750 nM. `O=C(NCCCCN1CCN(c2ccc3c(c2)CCC3)CC1)c1ccc(NC(=O)c2ccc(Cl)cc2)cc1`: the IC50 was determined as 680 nM.

`O=C(O)c1cc(OCC(O)COc2ccc(O)c(C(=O)O)c2)ccc1O` displayed an IC50 of 230 nM. Compared with the last compound, the IC50 is about 3-fold lower. The same measure for `NC1CCN(CCc2ccc(NS(=O)(=O)c3ccc(-c4ccccc4)cc3)cc2)CC1`: 1020 nM. Under `CCCCNC(=O)[C@@H]1CCCN1C(=O)c1ccc(O)c(-c2ccc(Cl)c(Cl)c2)c1` stands 750 nM.
